# pKi: −log10 of the molar value.
# Legend:
# [1] = molecular target: T1, p110 alpha (Homo sapiens, UniProt P42336); assay: PI3K isoform inhibition assay (fluorescence polarization), p110 alpha; format: biochemical; conditions: delta/alpha selectivity ratio
# T1 construct: purchased Upstate Group, Millipore; Dundee, UK
# Procedure: (§1) Determination of the activity of PI3 kinase activity of Formula I compounds is possible by a number of direct and indirect detection methods.
# (§2) PI3K enzymatic activity was assayed by measuring the amount of product phosphatidylinositol 3,4,5-phosphate (PIP3) formed from substrate 4,5 phosphatidylinositol 4,5-phosphate (PIP2) using a fluorescence polarization displacement assay. The decrease in fluorescence polarization of a fluorescent PIP3 probe is measured as it is displaced from a PIP3-binding protein GRP-1 detector by PI3K-catalyzed product. […] The kinase reactions were initiated by the addition of 40 ng/mL p110α/p85α, 300 ng/mL p110β/p85α, 40 ng/mL p110γ, or 40 ng/mL p110δ/p85α (Upstate Group, Millipore; Dundee, UK), and 10 μM PIP2 (Echelon Biosciences) to the wells. […] After 60 minutes of incubation at room temperature to allow equilibration of labeled and unlabeled PIP3 binding, the parallel and perpendicular components of the fluorescence emissions from each sample were measured at an excitation wavelength of 530 nm and an emission wavelength of 590 nm using an Envision fluorescent plate reader with a rhodamine filter (PerkinElmer Life and Analytical Sciences; Wellesley, Mass.). The assay is capable of detecting 0.1-2.0 μM PIP3 product. The Ki apparent values were obtained by fitting the dose-dependent inhibition data to the Morrison equation for tight-binding, competitive inhibitors. Reference: R. A. Copeland, Enzymes. “A Practical Introduction to Structure, Mechanism and Data Analysis”.
# The same protocol may be used to establish Ki values for p110α (alpha) PI3K binding.
# The four Class I PI 3-kinases are cloned into baculovirus vectors as follows: […]
# [2] = molecular target: T2, p110 delta (Homo sapiens, UniProt O00329); assay: PI3K isoform inhibition assay (fluorescence polarization), p110 delta; format: biochemical; conditions: Ki apparent, Morrison equation; 25 μM ATP, 10 μM PIP2
# T2 construct: purchased Upstate Group, Millipore; Dundee, UK
# Procedure: as §1, §2
# The Formula I compound was serially diluted in 100% DMSO. The kinase reaction was incubated for 1 h at room temperature, and the reaction was terminated by the addition of PBS. IC50 values were subsequently determined using sigmoidal dose-response curve fit (variable slope). […]
# T1 sequence (P42336 whole entry, species assumed, canonical isoform): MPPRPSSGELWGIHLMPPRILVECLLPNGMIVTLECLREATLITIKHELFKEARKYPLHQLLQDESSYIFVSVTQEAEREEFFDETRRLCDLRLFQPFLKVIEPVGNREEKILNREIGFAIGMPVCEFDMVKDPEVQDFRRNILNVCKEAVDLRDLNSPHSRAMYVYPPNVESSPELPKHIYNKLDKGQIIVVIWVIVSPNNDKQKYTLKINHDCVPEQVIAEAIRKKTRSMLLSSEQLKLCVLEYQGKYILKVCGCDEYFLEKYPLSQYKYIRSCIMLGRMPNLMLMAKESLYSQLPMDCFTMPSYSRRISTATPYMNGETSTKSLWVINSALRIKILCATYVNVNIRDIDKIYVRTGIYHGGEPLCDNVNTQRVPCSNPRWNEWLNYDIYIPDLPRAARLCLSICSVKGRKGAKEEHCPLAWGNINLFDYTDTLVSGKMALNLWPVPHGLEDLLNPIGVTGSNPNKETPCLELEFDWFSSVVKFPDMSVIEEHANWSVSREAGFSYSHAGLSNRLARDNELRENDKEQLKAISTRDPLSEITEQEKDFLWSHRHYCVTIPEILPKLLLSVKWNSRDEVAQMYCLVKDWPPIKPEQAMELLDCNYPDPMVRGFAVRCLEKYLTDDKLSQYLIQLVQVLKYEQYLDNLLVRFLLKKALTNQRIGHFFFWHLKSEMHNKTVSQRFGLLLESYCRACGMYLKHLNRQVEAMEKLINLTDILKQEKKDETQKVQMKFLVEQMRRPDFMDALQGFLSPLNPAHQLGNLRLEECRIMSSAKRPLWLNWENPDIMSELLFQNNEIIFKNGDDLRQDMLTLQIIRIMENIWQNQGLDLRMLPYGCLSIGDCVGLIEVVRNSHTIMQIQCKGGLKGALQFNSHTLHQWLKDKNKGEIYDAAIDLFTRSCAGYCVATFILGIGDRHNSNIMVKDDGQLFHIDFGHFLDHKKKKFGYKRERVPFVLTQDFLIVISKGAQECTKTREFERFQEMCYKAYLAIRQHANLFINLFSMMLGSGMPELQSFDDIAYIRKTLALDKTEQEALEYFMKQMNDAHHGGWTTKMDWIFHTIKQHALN
# T1 sequence (P27986 whole entry partner, species assumed, canonical isoform): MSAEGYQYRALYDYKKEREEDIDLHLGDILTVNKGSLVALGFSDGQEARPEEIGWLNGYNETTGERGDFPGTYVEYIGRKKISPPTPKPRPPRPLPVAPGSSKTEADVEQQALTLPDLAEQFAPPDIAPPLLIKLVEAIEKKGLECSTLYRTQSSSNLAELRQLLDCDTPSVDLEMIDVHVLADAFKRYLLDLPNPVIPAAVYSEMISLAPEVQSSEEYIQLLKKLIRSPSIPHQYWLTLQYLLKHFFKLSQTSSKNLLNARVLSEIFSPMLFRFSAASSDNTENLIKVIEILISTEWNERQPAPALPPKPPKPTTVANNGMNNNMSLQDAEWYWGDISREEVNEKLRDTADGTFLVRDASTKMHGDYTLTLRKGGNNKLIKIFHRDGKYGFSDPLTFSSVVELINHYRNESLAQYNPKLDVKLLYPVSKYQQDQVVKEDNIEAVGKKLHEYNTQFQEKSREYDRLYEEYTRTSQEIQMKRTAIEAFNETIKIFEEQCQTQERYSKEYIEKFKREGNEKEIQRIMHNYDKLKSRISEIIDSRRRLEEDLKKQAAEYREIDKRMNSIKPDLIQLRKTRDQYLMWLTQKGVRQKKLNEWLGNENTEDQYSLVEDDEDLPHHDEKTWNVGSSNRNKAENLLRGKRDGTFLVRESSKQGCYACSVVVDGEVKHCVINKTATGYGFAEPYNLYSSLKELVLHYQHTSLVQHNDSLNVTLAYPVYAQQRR
# T2 sequence (O00329 whole entry, canonical isoform): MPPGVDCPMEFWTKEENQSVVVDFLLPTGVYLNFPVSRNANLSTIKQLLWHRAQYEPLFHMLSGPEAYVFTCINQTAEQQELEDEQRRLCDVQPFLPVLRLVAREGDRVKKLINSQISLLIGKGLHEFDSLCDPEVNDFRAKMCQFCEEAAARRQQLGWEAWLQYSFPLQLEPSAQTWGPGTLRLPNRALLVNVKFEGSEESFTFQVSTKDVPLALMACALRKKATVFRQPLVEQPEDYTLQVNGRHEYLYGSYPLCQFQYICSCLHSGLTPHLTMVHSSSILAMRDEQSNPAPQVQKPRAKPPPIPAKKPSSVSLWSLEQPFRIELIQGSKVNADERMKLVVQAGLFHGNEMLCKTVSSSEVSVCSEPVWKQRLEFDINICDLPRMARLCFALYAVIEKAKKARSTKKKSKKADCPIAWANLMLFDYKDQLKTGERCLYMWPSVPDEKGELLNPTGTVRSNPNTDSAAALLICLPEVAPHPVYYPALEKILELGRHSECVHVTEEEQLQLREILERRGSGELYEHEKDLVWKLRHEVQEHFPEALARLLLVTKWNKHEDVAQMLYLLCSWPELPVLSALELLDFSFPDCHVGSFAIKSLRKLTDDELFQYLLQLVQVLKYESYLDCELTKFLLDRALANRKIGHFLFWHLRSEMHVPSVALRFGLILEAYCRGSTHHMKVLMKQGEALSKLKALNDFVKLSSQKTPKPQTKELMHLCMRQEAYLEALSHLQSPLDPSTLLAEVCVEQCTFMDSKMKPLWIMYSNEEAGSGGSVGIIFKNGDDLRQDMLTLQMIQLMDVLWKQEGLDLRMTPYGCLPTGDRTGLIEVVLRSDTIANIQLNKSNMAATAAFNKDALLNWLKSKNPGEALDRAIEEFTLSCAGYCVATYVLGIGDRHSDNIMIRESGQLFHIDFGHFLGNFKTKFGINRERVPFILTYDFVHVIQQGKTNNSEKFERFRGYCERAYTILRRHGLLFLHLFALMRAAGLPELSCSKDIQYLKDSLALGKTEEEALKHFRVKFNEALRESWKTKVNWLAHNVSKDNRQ
# T2 sequence (P27986 whole entry partner, canonical isoform): as the sequence (P27986 whole entry partner, species assumed, canonical isoform) above
Compound,Ki p110 alpha/ Ki p110 delta [1],pKi [2]
"CO[C@@H](C)c1nc2ccccc2n1-c1nc(N2CCOCC2)c2nc(OC3CN(C4CCS(=O)(=O)CC4)C3)n(C)c2n1 [Compound 143, (S)-4-(2-(2-(1-methoxyethyl)-1H-benzo[d]imidazol-1-yl)-9-methyl-8-(1-(1,1-dioxo-tetrahydro-2H-thiopyran-4-yl)azetidin-3-yloxy)-9H-purin-6-yl)morpholine]",50,8.80
"CC(C)C(=O)N1CC(Oc2nc3c(N4CCOCC4)nc(-c4c(F)ccc5[nH]ccc45)nc3n2C)C1 [Compound 126, 1-(3-(2-(5-fluoro-1H-indol-4-yl)-9-methyl-6-morpholino-9H-purin-8-yloxy)azetidin-1-yl)-2-methylpropan-1-one]",88,9.00
"CC(C)C(=O)N1CC(Oc2nc3c(N4CCOCC4)nc(-n4c(C(C)(F)F)nc5ccccc54)nc3n2C)C1 [Compound 132, 1-(3-(2-(2-(1,1-difluoroethyl)-1H-benzo[d]imidazol-1-yl)-9-methyl-6-morpholino-9H-purin-8-yloxy)azetidin-1-yl)-2-methylpropan-1-one]",31,9.03
"CC(C)c1nc2ccccc2n1-c1nc(N2CCOCC2)c2nc(OC3CN(C4COC4)C3)n(C)c2n1 [Compound 111, 4-(2-(2-isopropyl-1H-benzo[d]imidazol-1-yl)-9-methyl-8-(1-(oxetan-3-yl)azetidin-3-yloxy)-9H-purin-6-yl)morpholine]",102,8.79
"Cn1c(OC2CN(C3CCS(=O)(=O)CC3)C2)nc2c(N3CCOCC3)nc(-n3c(C(C)(F)F)nc4ccccc43)nc21 [Compound 139, 4-(2-(2-(1,1-difluoroethyl)-1H-benzo[d]imidazol-1-yl)-9-methyl-8-(1-(1,1-dioxo-tetrahydro-2H-thiopyran-4-yl)azetidin-3-yloxy)-9H-purin-6-yl)morpholine]",59,8.85
"CO[C@H](C)c1nc2ccccc2n1-c1nc(N2CCOCC2)c2nc(OC3CN(C4CCS(=O)(=O)CC4)C3)n(C)c2n1 [Compound 142, (R)-4-(2-(2-(1-methoxyethyl)-1H-benzo[d]imidazol-1-yl)-9-methyl-8-(1-(1,1-dioxo-tetrahydro-2H-thiopyran-4-yl)azetidin-3-yloxy)-9H-purin-6-yl)morpholine]",96,8.79
"CCc1nc2ccccc2n1-c1nc(N2CCOCC2)c2nc(OC3CCN(C(=O)C(C)C)CC3)n(C)c2n1 [Compound 108, 1-(4-(2-(2-ethyl-1H-benzo[d]imidazol-1-yl)-9-methyl-6-morpholino-9H-purin-8-yloxy)piperidin-1-yl)-2-methylpropan-1-one]",177,9.31
"CCc1nc2ccccc2n1-c1nc(N2CCOCC2)c2nc(OC3CN(C4CCS(=O)(=O)CC4)C3)n(C)c2n1 [Compound 114, 4-(2-(2-ethyl-1H-benzo[d]imidazol-1-yl)-9-methyl-8-(1-(1,1-dioxo-tetrahydro-2H-thiopyran-4-yl)azetidin-3-yloxy)-9H-purin-6-yl)morpholine]",163,8.90
"CO[C@@H](C)c1nc2ccccc2n1-c1nc(N2CCOCC2)c2nc(OC3CN(C(=O)C(C)C)C3)n(C)c2n1 [Compound 141, (S)-1-(3-(2-(2-(1-methoxyethyl)-1H-benzo[d]imidazol-1-yl)-9-methyl-6-morpholino-9H-purin-8-yloxy)azetidin-1-yl)-2-methylpropan-1-one]",54,9.08

# Next, values leading:
Ki p110 alpha/ Ki p110 delta [1],pKi [2],Compound
68,8.41,"CC(C)C(=O)N1CC(Oc2nc3c(N4CCOCC4)nc(-n4c(CCO)nc5ccccc54)nc3n2C)C1 [Compound 138, 1-(3-(2-(2-(2-hydroxyethyl)-1H-benzo[d]imidazol-1-yl)-9-methyl-6-morpholino-9H-purin-8-yloxy)azetidin-1-yl)-2-methylpropan-1-one]"
104,9.34,"CCc1nc2ccccc2n1-c1nc(N2CCOCC2)c2nc(OC3CN(C(=O)C4C[C@@H]4F)C3)n(C)c2n1 (stereo partly drawn) [Compound 157, (3-(2-(2-ethyl-1H-benzo[d]imidazol-1-yl)-9-methyl-6-morpholino-9H-purin-8-yloxy)azetidin-1-yl)((2S)-2-fluorocyclopropyl)methanone]"
72,8.63,"CCc1nc2ccccc2n1-c1nc(N2CCOCC2)c2nc(OC3CN(C(=O)C(C)(C)F)C3)n(C)c2n1 [Compound 147, 1-(3-(2-(2-ethyl-1H-benzo[d]imidazol-1-yl)-9-methyl-6-morpholino-9H-purin-8-yloxy)azetidin-1-yl)-2-fluoro-2-methylpropan-1-one]"
126,–,"CCc1nc2ccccc2n1-c1nc(N2CCOCC2)c2nc(OC3CN(C(=O)C(C)(C)CO)C3)n(C)c2n1 [Compound 151, 1-(3-(2-(2-ethyl-1H-benzo [d]imidazol-1-yl)-9-methyl-6-morpholino-9H-purin-8-yloxy)azetidin-1-yl)-3-hydroxy-2,2-dimethylpropan-1-one]"
70,8.65,"CCc1nc2ccccc2n1-c1nc(N2CCOCC2)c2nc(OC3CN(C(=O)C(C)(C)O)C3)n(C)c2n1 [Compound 115, 1-(3-(2-(2-ethyl-1H-benzo[d]imidazol-1-yl)-9-methyl-6-morpholino-9H-purin-8-yloxy)azetidin-1-yl)-2-hydroxy-2-methylpropan-1-one]"
76,9.27,"CCc1nc2ccccc2n1-c1nc(N2CCOCC2)c2nc(OC3CN(C(=O)C4(COC)CC4)C3)n(C)c2n1 [Compound 156, (3-(2-(2-ethyl-1H-benzo[d]imidazol-1-yl)-9-methyl-6-morpholino-9H-purin-8-yloxy)azetidin-1-yl)(1-(methoxymethyl)cyclopropyl) methanone]"
87,8.85,"CCc1nc2ccccc2n1-c1nc(N2CCOCC2)c2nc(OC3CN(C(=O)[C@H](C)O)C3)n(C)c2n1 [Compound 129, (S)-1-(3-(2-(2-ethyl-1H-benzo[d]imidazol-1-yl)-9-methyl-6-morpholino-9H-purin-8-yloxy)azetidin-1-yl)-2-hydroxypropan-1-one]"
188,9.04,"CCc1nc2ccccc2n1-c1nc(N2CCOCC2)c2nc(OC3CCNCC3)n(C)c2n1 [Compound 124, 4-(2-(2-ethyl-1H-benzo[d]imidazol-1-yl)-9-methyl-8-(piperidin-4-yloxy)-9H-purin-6-yl)morpholine]"
76,9.27,"CCc1nc2ccccc2n1-c1nc(N2CCOCC2)c2nc(OC3CN(S(=O)(=O)C4CC4)C3)n(C)c2n1 [Compound 118, 4-(8-(1-(cyclopropylsulfonyl)azetidin-3-yloxy)-2-(2-ethyl-1H-benzo[d]imidazol-1-yl)-9-methyl-9H-purin-6-yl)morpholine]"
41,8.35,"CCc1nc2ccccc2n1-c1nc(N2CCOCC2)c2nc(OC3CN(C(=O)C4(F)CC4)C3)n(C)c2n1 [Compound 146, (3-(2-(2-ethyl-1H-benzo[d]imidazol-1-yl)-9-methyl-6-morpholino-9H-purin-8-yloxy)azetidin-1-yl)(1-fluorocyclopropyl)methanone]"
259,9.47,"CCc1nc2ccccc2n1-c1nc(N2CCOCC2)c2nc(OC3CN(C(=O)C4CC4)C3C)n(C)c2n1 (stereo not shown) [Compound 148, cyclopropyl(3-(2-(2-ethyl-1H-benzo[d]imidazol-1-yl)-9-methyl-6-morpholino-9H-purin-8-yloxy)-2-methylazetidin-1-yl)methanone]"
115,–,"CCc1nc2ccccc2n1-c1nc(N2CCOCC2)c2nc(OC3CN(C(=O)C4CC4)C3)n(C)c2n1 [Compound 119, Cyclopropyl(3-(2-(2-ethyl-1H-benzo[d]imidazol-1-yl)-9-methyl-6-morpholino-9H-purin-8-yloxy)azetidin-1-yl)methanone]"
